Activity calls are given as the source filed them.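 Rule for the calls: active = growth-inhibition EC50 no more than tenfold above the top tested dose; inconclusive = flat fit between 30% and 70% inhibition, or unreliable fit; inactive = EC50 more than tenfold above the top tested dose.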
What follows are compounds tested on E. coli NEB5alpha growth, BacTiter-Glo luminescence, 4 h (assay: Escherichia coli growth inhibition, dose response, counter-screen for MEX-5/POS-1 RNA-binding inhibitor project, luminescence, NEB5alpha (AID 1959);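 note: pUC19-transformed ampicillin-resistant cells grown in LB with ampicillin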).

Row | Compound | EC50
1 | O=C1c2cccc3cccc(c23)C(=O)N1/N=C/c1c(O)n(-c2ccccc2)c(=O)[nH]c1=O | > 11 µM (inactive)
2 | N#Cc1c(N)n(-c2cccc(C(=O)O)c2)c2nc3ccccc3nc12 | > 11 µM (inactive)
3 | O=C(Nc1ccc(Br)cn1)c1ccc2nccnc2c1 | > 11 µM (inactive)
4 | Cn1cccc1/C=C1\C(=O)NC(=O)N(Cc2ccco2)C1=O | > 11 µM (inactive)
5 | COc1ccc(/C=N/N=C2/CC(C)(C)Cc3n[nH]c(=O)cc32)cc1 | > 11 µM (inactive)
6 | C=CCNC(=S)N1CCN(c2cccc(C(F)(F)F)c2)CC1 | > 11 µM (inactive)
7 | Cc1ccc2nc3sc(C(=O)N4CCOCC4)c(N)c3cc2c1 | > 11 µM (inactive)
8 | NS(=O)(=O)c1ccc2c(c1)C1C=CCC1C(C1CC=CCC1)N2 (stereo unspecified) | > 11 µM (inactive)
9 | COc1cc(C(=O)NC(c2ccccc2)c2ccccc2)cc(OC)c1C | > 11 µM (inactive)
10 | Cc1ccc(N=Nc2[nH]c3ccccc3c2O)cc1 | > 11 µM (inactive)
11 | CN1c2ccc(C=O)c3c(C=O)ccc(c23)N(C)C1(C)C | > 11 µM (inactive)
12 | CCCN1CCCc2cc(CN)ccc21 | > 11 µM (inactive)
13 | COc1ccc(C2C(C(=O)c3ccco3)=C(O)C(=O)N2c2nnc(C)s2)cc1OC (stereo unspecified) | > 11 µM (inactive)
14 | CC(C)(C)OC(=O)N1CC=C2C(C#N)=C(N)C(C#N)(C#N)[C@H](c3cccnc3)[C@H]2C1 | > 11 µM (inactive)
15 | CCOC(=O)C1Nc2ccc(OC(F)(F)F)cc2C2C=CCC12 (stereo unspecified) | > 11 µM (inactive)
16 | COC(=O)CNc1cccc(C(F)(F)F)c1 | > 11 µM (inactive)
17 | O=S(=O)(c1ccccc1)N1CCC(O)(CSc2ccc(Cl)cc2)CC1 | > 11 µM (inactive)
18 | CCOc1ccc2ccccc2c1C1NC(=O)N(C)C(C)=C1C(=O)OCCOC (stereo unspecified) | > 11 µM (inactive)
19 | O=c1oc2ccccc2cc1-c1nc(-c2cccs2)cs1 | > 11 µM (inactive)
20 | CN(C)c1ccc(/C=N/N(CCC(=O)NC(C)(C)C)C2=NS(=O)(=O)c3ccccc32)cc1 | > 11 µM (inactive)
21 | CN1C(=O)C(=Cc2ccccc2OS(=O)(=O)c2ccccc2)C(=O)N(C)C1=O | > 11 µM (inactive)
22 | OC(C#Cc1ccccn1)c1cccs1 (stereo unspecified) | > 11 µM (inactive)
23 | Cc1cc(C)cc(N2C(=O)NC(=O)/C(=C\c3cccn3-c3ccc(Cl)cc3)C2=O)c1 | > 11 µM (inactive)
24 | NS(=O)(=O)c1cc(C(=O)NC2CCSc3ccccc32)ccc1Cl (stereo unspecified) | > 11 µM (inactive)

Row | Compound | EC50
25 | Cc1ccc(NC(=O)CSc2nccc(=O)[nH]2)c(S(=O)(=O)N2CCOCC2)c1 | > 11 µM (inactive)
26 | CCCCC1=CC2=CC(=O)C(C)(OC(=O)c3cccs3)C(=O)C2=CO1 (stereo unspecified) | > 11 µM (inactive)
27 | N=C1c2ccccc2CN1NC(=O)CC12CC3CC(CC(C3)C1)C2 | > 11 µM (inactive)
28 | N#Cc1c(-c2ccc(Cl)cc2)c2c([nH]c1=O)-c1ccccc1OC2 | > 11 µM (inactive)
29 | CCCN1C(=O)/C(=C/c2ccc(C)o2)SC1=Nc1ccc(OC)cc1 | > 11 µM (inactive)
30 | CCCCOc1cccc(C2C(C(=O)c3ccc(C)o3)=C(O)C(=O)N2c2nnc(C)s2)c1 (stereo unspecified) | > 11 µM (inactive)
31 | COc1ccc(C2C(C(=O)c3cccs3)=C(O)C(=O)N2c2nncs2)cc1 (stereo unspecified) | > 11 µM (inactive)
32 | COc1cc2c3nnc(-c4ccc(F)cc4)c-3cn(Cc3ccc(C)cc3)c2cc1OC | > 11 µM (inactive)
33 | CCCCN(C)C(=O)CCC(=O)NNc1nc2ccccc2c2nc(C)nn12 | > 11 µM (inactive)
34 | C=CCOc1ccc(C2C(C(=O)c3cccs3)=C(O)C(=O)N2c2nnc(C)s2)cc1 (stereo unspecified) | > 11 µM (inactive)
35 | C(=N\NC(=Nc1ccccc1)c1ccccn1)/c1ccccn1 | > 11 µM (inactive)
36 | CCOC(=O)c1ccc(N/C=C2\CCCCC2=O)cc1 | > 11 µM (inactive)
37 | CCOC(=O)C1Nc2ccc(Br)cc2C2C=CCC12 (stereo unspecified) | > 11 µM (inactive)
38 | O=C(CCc1ccc(O)c(O)c1)N/N=C/c1cc2c(cc1[N+](=O)[O-])OCO2 | > 11 µM (inactive)
39 | Oc1ccc(NC(=S)N=Nc2c(O)[nH]c3ccccc23)cc1 | > 11 µM (inactive)
40 | CCOC(=O)N1CC=C2C(C#N)=C(N)C(C#N)(C#N)[C@H](c3ccsc3)[C@H]2C1 | > 11 µM (inactive)
41 | Oc1c(C=Nc2ccccc2Cl)[nH]c2ccccc12 | > 11 µM (inactive)
42 | CN(C)/C=C/C(=O)c1cnc(-c2ccccc2Cl)s1 | > 11 µM (inactive)
43 | Cc1sc(-n2c(C)cc(C=C3C(=O)NC(=O)NC3=O)c2C)c(C#N)c1C | > 11 µM (inactive)
44 | O=c1oc2ccc3ccccc3c2cc1-c1nc2ccccc2o1 | > 11 µM (inactive)
45 | C[C@H]1c2cccc(O)c2C(O)=C2C(=O)[C@]3(O)C(O)=C(C(N)=O)C(=O)[C@@H](N(C)C)C3[C@@H](O)C21 (stereo partly specified) | 4.58 µM
46 | Nc1cc(S(=O)(=O)O)cc([N+](=O)[O-])c1O | > 11 µM (inactive)
47 | CCOC(=O)[C@@]1(C#N)C(c2ccc(Cl)c(Cl)c2)[C@H](C(N)=O)N2C=C(C(C)=O)C=C[C@H]21 (stereo partly specified) | > 11 µM (inactive)
48 | CCc1ccc(NC(=O)/C(C#N)=C/c2cc3ccc(C)cc3nc2N2CCOCC2)cc1 | > 11 µM (inactive)

Row | Compound | EC50
49 | CC1(OC(=O)C2CCCC2)C(=O)C=C2C=C(c3ccsc3)OC=C2C1=O (stereo unspecified) | > 11 µM (inactive)
50 | Cc1ccc(C2C(C(=O)c3ccco3)=C(O)C(=O)N2c2nnc(C)s2)cc1 (stereo unspecified) | > 11 µM (inactive)
51 | Cc1cc(/C=C2\C(=O)NC(=O)N(c3ccccc3F)C2=O)c(C)n1-c1cc(C(=O)O)cc(C(=O)O)c1 | > 11 µM (inactive)
52 | CCOCCCNc1nc2nc3ccc(C)cn3c(=O)c2cc1C(=O)NCC1CCCO1 (stereo unspecified) | > 11 µM (inactive)
53 | CCCNS(=O)(=O)c1ccc(CCC(=O)NCc2ccc3c(c2)OCO3)cc1 | > 11 µM (inactive)
54 | Cc1ccccc1NC(=O)/C(C#N)=C/c1ccc(-c2ccc(Cl)c(C(=O)O)c2)o1 | > 11 µM (inactive)
55 | CCOC(=O)[C@]1(C#N)[C@@H]2C=CC(C(C)=O)=CN2[C@@H](C(N)=O)[C@@H]1c1ccsc1 | > 11 µM (inactive)
56 | COc1ccc(C2C(C#N)=C(N)OC3=C2C(=O)CC(C)(C)C3)c(OC)c1OC (stereo unspecified) | > 11 µM (inactive)
57 | CCOC1(OCC)N=C(N)C2(C#N)C(c3ccc(NC(C)=O)cc3)C12C#N (stereo unspecified) | > 11 µM (inactive)
58 | COc1ccc(N2C(=O)NC(=O)/C(=C\c3cn(CC(=O)N4CCOCC4)c4ccccc34)C2=O)c(OC)c1 | > 11 µM (inactive)
59 | N=c1c(C(=O)NCc2ccc(F)cc2)cc2c(=O)n3ccccc3nc2n1Cc1cccnc1 | > 11 µM (inactive)
60 | Cc1ccccc1-n1c(O)c(/C=N/NC(=O)c2ccccc2O)c(=O)[nH]c1=S | > 11 µM (inactive)
61 | O=C(c1ccco1)N1CCc2ccccc21 | > 11 µM (inactive)
62 | COc1cccc(NC(=O)c2ccccc2Br)c1 | > 11 µM (inactive)
63 | Cc1ccc2nc3sc(C(=O)N4CCCc5ccccc54)c(N)c3cc2c1 | > 11 µM (inactive)
64 | Cc1ccc(N2C(=O)NC(=O)/C(=C\c3cc(C)n(-c4ccc(C(=O)O)cc4)c3C)C2=O)cc1 | > 11 µM (inactive)
65 | Cc1cc(C=O)c(C)n1-c1cc(C(=O)O)cc(C(=O)O)c1 | > 11 µM (inactive)
66 | COC(=O)c1ccc(-n2c(CCC(=O)O)ccc2-c2ccccc2)cc1 | > 11 µM (inactive)
67 | Cc1c(N)cc(N)cc1C(=O)O | > 11 µM (inactive)
68 | FC(F)(F)c1ccc2c(c1)C1C=CCC1C(c1ccncc1)N2 (stereo unspecified) | > 11 µM (inactive)
69 | CCOC(=O)c1cc(=O)n2nc(-c3ccccc3F)nc2s1 | > 11 µM (inactive)
70 | COc1[nH]c(/N=C/c2ccccc2)c(C#N)c1C#N | > 11 µM (inactive)
71 | Nc1nonc1C(=O)NCCN=Cc1cc(Cc2ccccc2)cc(Br)c1O | > 11 µM (inactive)
72 | COc1ccccc1C(=O)C1CCCN(C(=O)c2cccnc2SC)C1 (stereo unspecified) | > 11 µM (inactive)

Row | Compound | EC50
73 | CCOc1cc(/C=C(\C#N)c2nc3ccccc3[nH]2)ccc1OC(C)C(=O)O (stereo unspecified) | > 11 µM (inactive)
74 | CCc1ccccc1N1C(=O)NC(=O)/C(=C\c2cc(C)n(C)c2C)C1=O | > 11 µM (inactive)
75 | CCCc1c(O)nc(SCC(=O)N2CCCCC2)[nH]c1=O | > 11 µM (inactive)
76 | Cc1ccc(C)c(N(C)C(=O)c2coc(=O)c3ccccc23)c1 | > 11 µM (inactive)
77 | C=CCN1C(=O)NC(=O)/C(=C/C=C/c2ccccc2)C1=O | > 11 µM (inactive)
78 | Cc1ccc(/C=N/Nc2ncnc3nc[nH]c23)cc1 | > 11 µM (inactive)
79 | Cc1cccc(N=Nc2c(O)[nH]c3ccc(Br)cc23)c1 | > 11 µM (inactive)
80 | O=C(O)CCc1ccc(-c2cccs2)n1-c1ccc(C(=O)O)cc1 | > 11 µM (inactive)
81 | Cc1cc2nc3ccc(N(C)C)cc3nc2cc1N | > 11 µM (inactive)
82 | CCN(CC)c1ccc2cc(NC(=O)CCC(=O)O)c(=O)oc2c1 | > 11 µM (inactive)
83 | COc1ccccc1N1C(=O)S/C(=C\c2ccc(C)s2)C1=O | > 11 µM (inactive)
84 | C[C@@H]1Cc2c(O)c(O)cc(O)c2C(=O)O1 | > 11 µM (inactive)
85 | Cn1nc(-c2ccc(Cl)cc2)nc2c(=O)n(C)c(=O)nc1-2 | > 11 µM (inactive)
86 | CCOC(=O)c1ccc(-n2c(CCC(=O)O)ccc2-c2ccccc2)cc1 | > 11 µM (inactive)
87 | c1ccc(-c2nnc(-c3ccccn3)nn2)nc1 | > 11 µM (inactive)
88 | CCOC(=O)c1c2ccc(OCC(=O)N/N=C/c3ccc(C)cc3)cc2n2ccccc12 | > 11 µM (inactive)
89 | N=c1n(CC(=O)c2ccc([N+](=O)[O-])cc2)c2ccccc2n1Cc1ccc(Cl)cc1 | > 11 µM (inactive)
90 | Nc1ccc(S(=O)(=O)NNC(=O)C(=O)NNc2ccccn2)cc1 | > 11 µM (inactive)
91 | O=C(N/N=C/c1ccc(-c2cccc([N+](=O)[O-])c2)o1)c1ccc([N+](=O)[O-])cc1 | > 11 µM (inactive)
92 | O=C(O)c1ccccc1-n1cccc1C(=O)O | > 11 µM (inactive)
93 | NC(=O)c1sc2nnc(-c3ccccc3)c(-c3ccccc3)c2c1N | > 11 µM (inactive)
94 | COC(=O)C1=C(C)N(c2ccc(Cl)cc2)/C(=C/c2cccs2)C1=O | > 11 µM (inactive)
95 | CN1C(=O)/C(=C/c2ccc(-c3ccccc3[N+](=O)[O-])o2)SC1=Nc1ccc(Cl)c(C(=O)O)c1 | > 11 µM (inactive)
96 | O=[N+]([O-])c1ccc(Nc2ccccc2O)c2nonc12 | > 11 µM (inactive)

From PubChem BioAssay AID1959 (Broad Institute, 2009)
